Laboratory results taken from publication PMC2605271 (Journal of clinical neuroscience : official journal of the …, 2008).
Entries after “also recorded” stand apart in the source; their conditions may differ.

Experiments:
[1] = biological target: T1, serotonin transporter (SERT) (Homo sapiens, UniProt P31645); assay: cell-based
[2] = biological target: norepinephrine transporter (NET) (Homo sapiens, UniProt P23975); conditions: 10^−7 M to 10^−3 M, 30 minutes, HEK-hNET cells
[3] = biological target: T1, serotonin transporter (SERT)
NET protein expression = assay: Immunoblotting of NET protein expression in HEK-hNET cells; format: cell-based, human; conditions: 10^−6 M, 24 hours

Sequence of norepinephrine transporter (NET) (P23975 whole entry): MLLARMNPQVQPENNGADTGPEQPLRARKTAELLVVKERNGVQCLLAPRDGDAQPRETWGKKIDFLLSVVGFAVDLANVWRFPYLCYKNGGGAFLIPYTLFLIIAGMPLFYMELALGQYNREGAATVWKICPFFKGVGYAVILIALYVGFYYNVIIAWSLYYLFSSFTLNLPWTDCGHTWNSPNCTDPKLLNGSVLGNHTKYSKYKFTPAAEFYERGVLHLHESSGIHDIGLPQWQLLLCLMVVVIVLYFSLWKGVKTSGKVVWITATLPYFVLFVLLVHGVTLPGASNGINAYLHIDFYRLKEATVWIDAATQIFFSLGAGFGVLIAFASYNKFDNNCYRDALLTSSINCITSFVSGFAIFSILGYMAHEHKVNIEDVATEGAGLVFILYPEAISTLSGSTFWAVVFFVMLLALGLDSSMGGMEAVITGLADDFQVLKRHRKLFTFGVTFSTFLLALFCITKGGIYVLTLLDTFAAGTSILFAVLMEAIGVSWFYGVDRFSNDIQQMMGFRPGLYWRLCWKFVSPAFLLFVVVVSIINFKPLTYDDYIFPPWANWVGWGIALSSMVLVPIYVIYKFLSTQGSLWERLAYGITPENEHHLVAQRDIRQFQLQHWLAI
T1 sequence (P31645 whole entry): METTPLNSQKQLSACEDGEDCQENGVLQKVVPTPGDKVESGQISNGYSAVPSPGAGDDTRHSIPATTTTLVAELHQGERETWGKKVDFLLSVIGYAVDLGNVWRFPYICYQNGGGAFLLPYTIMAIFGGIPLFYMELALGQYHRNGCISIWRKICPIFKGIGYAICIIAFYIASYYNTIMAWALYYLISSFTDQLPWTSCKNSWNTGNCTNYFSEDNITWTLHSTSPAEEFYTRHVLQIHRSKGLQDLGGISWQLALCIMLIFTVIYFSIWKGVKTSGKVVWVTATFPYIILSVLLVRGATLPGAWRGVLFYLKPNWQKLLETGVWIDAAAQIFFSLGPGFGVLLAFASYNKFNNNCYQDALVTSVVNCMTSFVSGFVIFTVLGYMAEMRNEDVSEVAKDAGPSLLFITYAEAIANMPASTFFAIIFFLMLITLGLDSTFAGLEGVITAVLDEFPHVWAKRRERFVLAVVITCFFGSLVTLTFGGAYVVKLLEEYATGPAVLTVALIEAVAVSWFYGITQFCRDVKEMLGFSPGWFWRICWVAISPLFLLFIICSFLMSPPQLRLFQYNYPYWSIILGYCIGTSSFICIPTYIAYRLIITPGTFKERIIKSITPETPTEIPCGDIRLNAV

CCCC(C)C1(CC)C(=O)NC(=S)NC1=O (stereo not shown) [Thiopental, thiopental]
EC50 [1]: > 50 mM
Effect on NET function ([3H]-NE uptake) [2]: failed to have any effect; also recorded: no effect; also recorded: No evidence of inhibition
Effect on SERT function ([3H]-5-HT uptake) [3]: failed to have any effect; also recorded: no effect

CNCCCN1c2ccccc2CCc2ccccc21 [desipramine]
Change in NET protein expression in response to chronic desipramine treatment (NET protein expression): no changes
